Target: T1, Arginase-1 (Homo sapiens, UniProt P05089)
T1 sequence (P05089 whole entry): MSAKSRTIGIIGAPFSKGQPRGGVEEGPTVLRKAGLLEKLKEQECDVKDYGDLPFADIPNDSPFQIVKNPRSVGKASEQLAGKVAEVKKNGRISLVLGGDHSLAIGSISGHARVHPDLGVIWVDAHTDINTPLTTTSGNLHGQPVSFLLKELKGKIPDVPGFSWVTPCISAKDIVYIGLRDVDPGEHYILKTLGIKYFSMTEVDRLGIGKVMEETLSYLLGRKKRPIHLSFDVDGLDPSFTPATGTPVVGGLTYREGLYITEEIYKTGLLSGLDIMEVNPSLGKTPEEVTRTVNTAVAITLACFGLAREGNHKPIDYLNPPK
Assay: Inhibition of human recombinant full length arginase 1 expressed in Escherichia coli BL21(DE3) by fixed point assay

Nc1ncc(CCCC(N)C(=O)O)[nH]1 (stereo unspecified) [2-amino-5-(2-aminoimidazol-4-yl)pentanoic acid]
Ki: > 800 mM
